According to patent US9056851B2, “Thiolactone antibiotics” (priority 2011, dated 2015):

molecular target: C171Q KasA acyl-enzyme mimic (Mycobacterium tuberculosis, UniProt P9WQD9, C171Q); assay type: binding, M. tuberculosis

| SMILES | Slow Onset | Slow or Rapid onset of binding to C171QKasA (words in Ki* column) |
| --- | --- | --- |
| C=C/C(C)=C/[C@@]1(C)SC(=O)C=C1O [TLM2, 5R-(+)-3-Demethylthiolactomycin] | No | Rapid |
| C=C/C(C)=C/[C@@]1(C)SC(=O)C(CC)=C1O [TLM3, 5R-(+)-3-Ethylthiolactomycin] | Yes | Slow, |
| C=C/C(C)=C/[C@@]1(C)SC(=O)C(CCC)=C1O [TLM4, 5R-(+)-3-Propylthiolactomycin] | Yes | Slow, |
| C=C/C(C)=C/[C@@]1(C)SC(=O)C(CCc2ccc(C)cc2)=C1O [TLM5] | No | Rapid |
| C=C/C(C)=C/[C@@]1(C)SC(=O)C(CCCCc2ccc(F)cc2)=C1O [TLM6] | No | Rapid |
| C=C/C(C)=C/[C@@]1(C)SC(=O)C(CCCCc2ccc(Cl)cc2)=C1O [TLM7] | No | Rapid |
| C=C/C(C)=C/[C@@]1(C)SC(=O)C(CCCCc2ccc(Br)cc2)=C1O [TLM8] | No | Rapid |
| C=C/C(C)=C/[C@@]1(C)SC(=O)C(CCCCc2ccc(-c3ccccc3)cc2)=C1O [TLM9] | No | Rapid |
| C=C/C(C)=C/[C@@]1(C)SC(=O)C(CCCN=[N+]=[N-])=C1O [TLM10] | Yes | Slow Onset |
| C=C/C(C)=C/[C@@]1(C)SC(=O)C(CCc2ccc(Cl)cc2)=C1O [TLM31] | No | – |
| C=C/C(C)=C/[C@@]1(C)SC(=O)C(CCCCN=[N+]=[N-])=C1O [TLM32] | Yes | – |
| C=C/C(C)=C/[C@@]1(C)SC(=O)C(CCCCn2cc(CNC(=O)[C@H](O)C(C)(C)CO)nn2)=C1O [TLM33] | No | – |
| C=C/C(C)=C/[C@@]1(C)SC(=O)C(CCCCn2cc(CNC(=O)c3ccc(NS(=O)(=O)c4ccc(F)cc4)cc3)nn2)=C1O [TLM34] | No | – |
| C=C/C(C)=C/[C@@]1(C)SC(=O)C(C(C)=O)=C1O [TLM35] | Yes | – |
| C=C/C(C)=C/[C@@]1(C)SC(=O)C(C(=O)C(F)(F)F)=C1O [TLM36] | Yes | – |
| C=C/C(C)=C/[C@@]1(C)SC(=O)C(C(=O)OC)=C1O [TLM37] | No | – |
| C=C/C(C)=C/[C@@]1(C)SC(=O)C(C(=O)CCC)=C1O [TLM38] | No | – |
| C=C/C(C)=C/[C@@]1(C)SC(=O)C(C(=O)c2ccccc2C(=O)O)=C1O [TLM39] | No | – |
| C=C/C(C)=C/[C@@]1(C)SC(=O)C=C1OCC(=O)NCCN=[N+]=[N-] [TLM40] | No | – |
| C=C/C(C)=C/[C@@]1(C)SC(=O)C(C(=O)CCCCCCCCCCCCCCC)=C1O [TLM43] | No | – |
| C=C/C(C)=C/[C@@]1(C)SC(=O)C(C(=O)CCCCc2ccc(-c3ccccc3)cc2)=C1O [TLM45] | No | – |
| C=C/C(C)=C/[C@@]1(C)SC(=O)C(C)=C1O [TLM, 5R-(+)-Thiolactomycin] | Yes | Slow, |
